Experiments:
late watergrass [1] = test: Test Example 1: herbicidal activity, application before weed generation under submerged conditions (Table 16, symbol A); assay type: in vivo, late watergrass (Echinochloa oryzicola); conditions: 320 g/ha applied herbicide
In short: (§1)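 Submerged Wagner pots (alluvial soil, 4 cm water) sown with weed seeds and planted with 2.5-leaf rice seedlings; emulsifiable concentrate diluted in water applied to water surface on sowing day. Held in greenhouse at 25-30 °C; injury scored 0-5 by herbicidal rate after three weeks.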

Japanese bulrush [2] = test: Test Example 1: herbicidal activity, application before weed generation under submerged conditions (Table 16, symbol B); assay type: in vivo, Japanese bulrush (Schoenoplectus juncoides); conditions: 320 g/ha applied herbicide
In short: as §1

oval-leafed pondweed [3] = test: Test Example 1: herbicidal activity, application before weed generation under submerged conditions (Table 16, symbol C); assay type: in vivo, oval-leafed pondweed (Monochoria vaginalis); conditions: 320 g/ha applied herbicide
In short: as §1

late watergrass [4] = test: Test Example 2: herbicidal activity, application during weed generation under submerged conditions (Table 17, symbol A); assay type: in vivo, late watergrass (Echinochloa oryzicola); conditions: AAH 320 g/ha; application during weed generation, submerged conditions
In short: (§2)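 Alluvial soil in Wagner pots was flooded to 4 cm depth and sown with the three weeds together; pots were kept in a greenhouse at 25° C. to 30° C. At the one to two leaf stage, an emulsion formulation diluted in water to a set rate went onto the water surface; scored three weeks later.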

Japanese bulrush [5] = test: Test Example 2: herbicidal activity, application during weed generation under submerged conditions (Table 17, symbol B); assay type: in vivo, Japanese bulrush (Schoenoplectus juncoides); conditions: AAH 320 g/ha; application during weed generation, submerged conditions
In short: as §2

oval-leafed pondweed [6] = test: Test Example 2: herbicidal activity, application during weed generation under submerged conditions (Table 17, symbol C); assay type: in vivo, oval-leafed pondweed (Monochoria vaginalis); conditions: AAH 320 g/ha; application during weed generation, submerged conditions
In short: as §2

barnyard grass [7] = test: Test Example 3: herbicidal effect by foliage application, Wagner pot (Table 18, symbol H); assay type: in vivo, barnyard grass (Echinochloa crus-galli); conditions: amount of applied herbicide 320 g/ha
In short: (§3)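 Plants were sown in alluvial soil held under 0.1–0.5 cm standing water and grown 14 days in a greenhouse at 25–30 °C. An emulsifiable formulation, water-diluted to the set dose, was then sprayed onto the foliage, and effects were scored three weeks later using previously defined criteria.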

Chinese sprangletop = test: Test Example 3: herbicidal effect by foliage application, Wagner pot (Table 18, symbol D); assay type: in vivo, chinese sprangletop (Leptochloa chinensis); conditions: amount of applied herbicide 320 g/ha
In short: as §3

rice flat sedge = test: Test Example 3: herbicidal effect by foliage application, Wagner pot (Table 18, symbol E); assay type: in vivo, rice flat sedge (Cyperus iria); conditions: amount of applied herbicide 320 g/ha
In short: as §3

southern crabgrass = test: Test Example 5: herbicidal effect by foliage application, plastic box (Table 20, symbol F); assay type: in vivo, southern crabgrass (Digitaria ciliaris); conditions: foliage application, 320 g/ha, evaluated three weeks after application
In short: (§4)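 Plants were sown into sterilized diluvial soil under about 1.5 cm cover and kept in a greenhouse at 25° C. to 30° C. Fourteen days on, foliage received an even spray of the diluted emulsion. Herbicidal or crop effect was judged three weeks afterwards.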

green foxtail = test: Test Example 5: herbicidal effect by foliage application, plastic box (Table 20, symbol G); assay type: in vivo, green foxtail (Setaria viridis); conditions: foliage application, 320 g/ha, evaluated three weeks after application
In short: as §4

barnyard grass [8] = test: Test Example 5: herbicidal effect by foliage application, plastic box (Table 20, symbol H); assay type: in vivo, barnyard grass (Echinochloa crus-galli); conditions: foliage application, 320 g/ha, evaluated three weeks after application
In short: as §4

wild oat = test: Test Example 5: herbicidal effect by foliage application, plastic box (Table 20, symbol I); assay type: in vivo, wild oat (Avena fatua); conditions: foliage application, 320 g/ha, evaluated three weeks after application
In short: as §4

blackgrass = test: Test Example 5: herbicidal effect by foliage application, plastic box (Table 20, symbol J); assay type: in vivo, blackgrass (Alopecurus myosuroides); conditions: foliage application, 320 g/ha, evaluated three weeks after application
In short: as §4

Italian ryegrass = test: Test Example 5: herbicidal effect by foliage application, plastic box (Table 20, symbol K); assay type: in vivo, Italian ryegrass (Lolium multiflorum); conditions: foliage application, 320 g/ha, evaluated three weeks after application
In short: as §4

windgrass = test: Test Example 5: herbicidal effect by foliage application, plastic box (Table 20, symbol L); assay type: in vivo, windgrass (Apera spica-venti); conditions: foliage application, 320 g/ha, evaluated three weeks after application
In short: as §4

velvetleaf = test: Test Example 5: herbicidal effect by foliage application, plastic box (Table 20, symbol M); assay type: in vivo, velvetleaf (Abutilon theophrasti); conditions: foliage application, 320 g/ha, evaluated three weeks after application
In short: as §4

redroot pigweed = test: Test Example 5: herbicidal effect by foliage application, plastic box (Table 20, symbol N); assay type: in vivo, redroot pigweed (Amaranthus retroflexus); conditions: foliage application, 320 g/ha, evaluated three weeks after application
In short: as §4

lambsquarters = test: Test Example 5: herbicidal effect by foliage application, plastic box (Table 20, symbol O); assay type: in vivo, lambsquarters (Chenopodium album); conditions: foliage application, 320 g/ha, evaluated three weeks after application
In short: as §4

chickweed = test: Test Example 5: herbicidal effect by foliage application, plastic box (Table 20, symbol P); assay type: in vivo, common chickweed (Stellaria media); conditions: foliage application, 320 g/ha, evaluated three weeks after application
In short: as §4

persian speedwell = test: Test Example 5: herbicidal effect by foliage application, plastic box (Table 20, symbol R); assay type: in vivo, Persian speedwell (Veronica persica); conditions: foliage application, 320 g/ha, evaluated three weeks after application
In short: as §4

Cc1nn(C)c(=O)c(-c2c(-c3ccc(C(=O)O)cc3)sc3ccc(Cl)cc23)c1O [2-113]
Herbicidal effect on A: late watergrass (grade 0-5) (late watergrass [1]): 3 (Herbicidal rate of 40% or more and less than 70%)
Herbicidal effect on B: Japanese bulrush (grade 0-5) (Japanese bulrush [2]): 0 (Herbicidal rate of 5% or less (almost no effect))
Herbicidal effect on C: oval-leafed pondweed (grade 0-5) (oval-leafed pondweed [3]): 0 (Herbicidal rate of 5% or less (almost no effect))
herbicidal effect rating, A: late watergrass (late watergrass [4]): 2 (Herbicidal rate of 20% or more and less than 40%)
herbicidal effect rating, B: Japanese bulrush (Japanese bulrush [5]): 0 (Herbicidal rate of 5% or less (almost no effect))
herbicidal effect rating, C: oval-leafed pondweed (oval-leafed pondweed [6]): 0 (Herbicidal rate of 5% or less (almost no effect))
herbicidal effect on H: barnyard grass (barnyard grass [7]): 3 (Herbicidal rate of 40% or more and less than 70%)
herbicidal effect on D: Chinese sprangletop (Chinese sprangletop): 1 (Herbicidal rate of 5% or more and less than 20%)
herbicidal effect on E: rice flat sedge (rice flat sedge): 0 (Herbicidal rate of 5% or less (almost no effect))
herbicidal effect on F: southern crabgrass (southern crabgrass): 0 (Herbicidal rate of 5% or less (almost no effect))
herbicidal effect on G: green foxtail (green foxtail): 0 (Herbicidal rate of 5% or less (almost no effect))
herbicidal effect on H: barnyard grass (barnyard grass [8]): 0 (Herbicidal rate of 5% or less (almost no effect))
herbicidal effect on I: wild oat (wild oat): 0 (Herbicidal rate of 5% or less (almost no effect))
herbicidal effect on J: blackgrass (blackgrass): 0 (Herbicidal rate of 5% or less (almost no effect))
herbicidal effect on K: Italian ryegrass (Italian ryegrass): 0 (Herbicidal rate of 5% or less (almost no effect))
herbicidal effect on L: windgrass (windgrass): 0 (Herbicidal rate of 5% or less (almost no effect))
herbicidal effect on M: velvetleaf (velvetleaf): 0 (Herbicidal rate of 5% or less (almost no effect))
herbicidal effect on N: redroot pigweed (redroot pigweed): 0 (Herbicidal rate of 5% or less (almost no effect))
herbicidal effect on O: lambsquarters (lambsquarters): 0 (Herbicidal rate of 5% or less (almost no effect))
herbicidal effect on P: chickweed (chickweed): 0 (Herbicidal rate of 5% or less (almost no effect))
herbicidal effect on R: persian speedwell (persian speedwell): 0 (Herbicidal rate of 5% or less (almost no effect))
